# Literature values, collected in patent US20080095831A1, “TOPICAL FORMULATION OF […] […] COMPOSITION FOR PERCUTANEOUS ABSORPTION OF […] ACTIVE AGENT” (priority 2006, published 2008).
# Counter-ions that a name gives are not always drawn.
SMILES,solubility in water (in words),also measured
CC(=O)[C@H]1CC[C@H]2[C@@H]3CCC4=CC(=O)CC[C@]4(C)[C@H]3CC[C@]12C [Progesterone],insoluble,
CC/C(=C(\c1ccccc1)c1ccc(OCCN(C)C)cc1)c1ccccc1 [Tamoxifen citrate],,collagen production (keloid cells): decrease; keloid fibroblast production (keloid cells): inhibit; effect on keloid cells (keloid cells; concentration of about 0.01%): deadly effect
CN(C)CCC=C1c2ccccc2CCc2ccccc21 [Amitriptline],freely soluble,
O=[N+]([O-])O[C@H]1CO[C@H]2[C@@H]1OC[C@H]2O[N+](=O)[O-] [Isosorbide dinitrate],sparingly soluble,
Clc1cccc(Cl)c1N=C1NCCN1 [clonidine hydrochloride],freely soluble,
NC(=O)c1cccnc1 [nicotinamide],freely soluble,
CCCCC(C)(O)C/C=C/[C@H]1[C@H](O)CC(=O)[C@@H]1CCCCCCC(=O)OC (mixture of isomers) [Misoprostol],water-soluble,
